From publication PMC4550094 (Journal of biomolecular screening, 2013)
“And” between values parts separate entries of the source, which are not always exact repeats. Equal values may be shown once. Read-outs that look alike come from different tables or passages of the source.

Key:
HepG2 cells [1] = assay: CellTiter-Glo cell viability assay; format: cell-based, Human; settings: for Cell Viability IC50 / Cell Viability Efficacy (maximum inhibition of cell viability): HepG2, 24 h treatment, mean ± SD of three experiments; for IC50: Homo sapiens, HepG2, 24 h, read-out: Cell Viability IC50
HepG2 cells [2] = assay: LipidTOX Red PLD assay, qHTS, 1536-well high-content imaging; format: cell-based, Human; settings: for Primary Screen Efficacy: LOPAC primary qHTS, % of PLD induction by 19.16 µM amiodarone; for Primary Screen Efficacy / EC50: HepG2, 24 h; for EC50: Homo sapiens; for PLD induction (result in words): HepG2, primary screen and cherry-pick confirmation
I13-35 cells = settings: read-out: Literature-Reported EC50, cited from earlier work
[3] = read-out: Confirmation EC50 (PLD induction)
[4] = read-out: Primary Screen EC50 (PLD induction)

For CC(C)NCC(O)COc1cccc2ccccc12 (racemic) [(±)-Propranolol], the “Cell Viability IC50” value (HepG2 cells [1]) was “Inactive”.
With NC(N)=NC(=O)c1nc(Cl)c(N2CCCCCC2)nc1N [5-(N,N-hexamethylene) amiloride] the “Cell Viability Efficacy (maximum inhibition of cell viability)” value (HepG2 cells [1]) was 40.7±4.9% and the “Primary Screen Efficacy” value (HepG2 cells [2]) was 52.8%.
In the case of CC(C)(C)[C@]1(O)CCN2C[C@H]3c4ccccc4CCc4cccc(c43)[C@@H]2C1 [(+)-Butaclamol], the “Cell Viability Efficacy (maximum inhibition of cell viability)” value (HepG2 cells [1]) is reported as 47.2±18.3% and the IC50 (HepG2 cells [1]) is reported as 47.8 ± 32.2 µM.
In the case of NC12CC3CC(CC(C3)C1)C2 [Amantadine], the EC50 (I13-35 cells; I13-35 cells) is listed as 239 µM, the EC50 (HepG2 cells [2]; [3]) is listed as 3.9 ± 4.5 µM and the EC50 (HepG2 cells [2]; [4]) is listed as 0.9 µM.
For COc1cc2nc(N3CCCN(C)CC3)nc(NC3CCN(Cc4ccccc4)CC3)c2cc1OC [BIX 01294], the “Cell Viability Efficacy (maximum inhibition of cell viability)” value (HepG2 cells [1]) was 98% and 98.6±3.3%, the IC50 (HepG2 cells [1]) was 10 ± 1.6 µM and the EC50 (HepG2 cells [2]; [3]) was 1.6 ± 0.4 µM. For the same compound, the EC50 (HepG2 cells [2]; [4]) was 3.5 µM.
With CC(N)Cc1c[nH]c2ccc(OCc3cccs3)cc12 (stereo not shown) [BW 723C86] the “Cell Viability Efficacy (maximum inhibition of cell viability)” value (HepG2 cells [1]) was 37.7±11.9% and the “Primary Screen Efficacy” value (HepG2 cells [2]) was 62.2%.
For CN1CCN(c2nc3cc(C(F)(F)F)ccc3n3cccc23)CC1 [CGS-12066A], the “Cell Viability Efficacy (maximum inhibition of cell viability)” value (HepG2 cells [1]) was 56.7±13.3% and the “Primary Screen Efficacy” value (HepG2 cells [2]) was 103.7%.
In the case of CCN(CC)CCCC(C)Nc1ccnc2cc(Cl)ccc12 (stereo not shown) [Chloroquine], the EC50 (I13-35 cells) is listed as 11.8 µM, the EC50 (HepG2 cells [2]; [3]) is listed as 23.6 µM and the EC50 (HepG2 cells [2]; [4]) is listed as 28.2 µM.
In the case of CN(C)CCCN1c2ccccc2Sc2ccc(Cl)cc21 [Chlorpromazine], the EC50 (I13-35 cells; I13-35 cells) is given as 4.1 µM, the EC50 (HepG2 cells [2]; [3]) is given as 5.4 ± 1.9 µM and the EC50 (HepG2 cells [2]; [4]) is given as 10 µM.
In the case of CN(C)CCCC1(c2ccc(F)cc2)OCc2cc(C#N)ccc21 (stereo not shown) [Citalopram], the EC50 (I13-35 cells; I13-35 cells) is listed as 38 µM, the EC50 (HepG2 cells [2]; [3]) is listed as 27.5 ± 3.1 µM and the EC50 (HepG2 cells [2]; [4]) is listed as 10 µM.
For CNCCCN1c2ccccc2CCc2ccccc21 [Desipramine], the EC50 (I13-35 cells; I13-35 cells) is listed as 9.1 µM, the EC50 (HepG2 cells [2]; [3]) is listed as 5.1 ± 1.1 µM and the EC50 (HepG2 cells [2]; [4]) is listed as 11.2 µM.
With OC(CN1CCC(Cc2ccc(F)cc2)CC1)c1ccc(Cl)cc1 (stereo not shown) [Eliprodil] the “Cell Viability Efficacy (maximum inhibition of cell viability)” value (HepG2 cells [1]) was 24.6±2.1%, the IC50 (HepG2 cells [1]) was 26.5 ± 2.2 µM and the EC50 (HepG2 cells [2]; [3]) was 9 ± 5 µM. For the same compound, the EC50 (HepG2 cells [2]; [4]) was 10 µM.
In the case of Cc1c2ccncc2c(C)c2c1[nH]c1ccccc12 [Ellipticine], the “Cell Viability Efficacy (maximum inhibition of cell viability)” value (HepG2 cells [1]) is reported as 102.3±4.0%, the IC50 (HepG2 cells [1]) is reported as 29.8 ± 2.4 µM and the EC50 (HepG2 cells [2]; [3]) is reported as 9 ± 3.3 µM. It also gave an EC50 (HepG2 cells [2]; [4]) of 5 µM.
For COc1ccc(NC(=O)c2ccc(-c3ccc(-c4noc(C)n4)cc3C)cc2)cc1N1CCN(C)CC1 [GR 127935], the “Cell Viability Efficacy (maximum inhibition of cell viability)” value (HepG2 cells [1]) was 106.7±13.6%, the IC50 (HepG2 cells [1]) was 42.6 ± 10.3 µM and the “PLD induction (result in words)” value (HepG2 cells [2]) was “significantly induced PLD formation”. It also gave an EC50 (HepG2 cells [2]; [3]) of 0.8 µM and an EC50 (HepG2 cells [2]; [4]) of 6.3 µM.
In the case of COc1ccc2c(c1)c(CCN1CCOCC1)c(C)n2C(=O)c1cccc(Cl)c1Cl [GW405833], the “Cell Viability Efficacy (maximum inhibition of cell viability)” value (HepG2 cells [1]) is reported as 70.0±58.7% and the “Primary Screen Efficacy” value (HepG2 cells [2]) is reported as 49.4%.
For CC(C(O)c1ccc(O)cc1)N1CCC(Cc2ccccc2)CC1 (stereo not shown) [Ifenprodil], the “Cell Viability Efficacy (maximum inhibition of cell viability)” value (HepG2 cells [1]) was 25.5±0.8%, the IC50 (HepG2 cells [1]) was 21.1 ± 1.7 µM and the EC50 (HepG2 cells [2]; [3]) was 12.3 ± 6.7 µM. It also gave an EC50 (HepG2 cells [2]; [4]) of 7.9 µM.
In the case of CN(C)CCCN1c2ccccc2CCc2ccccc21 [Imipramine], the EC50 (I13-35 cells; I13-35 cells) is listed as 21 µM, the EC50 (HepG2 cells [2]; [3]) is listed as 20.8 ± 6.9 µM and the EC50 (HepG2 cells [2]; [4]) is listed as 10 µM.
With COc1cc2nc(N3CCN(C(=O)OCc4ccccc4)[C@H](C(=O)NC(C)(C)C)C3)nc(N)c2cc1OC [L-765,314] the “Cell Viability Efficacy (maximum inhibition of cell viability)” value (HepG2 cells [1]) was 115.2±0.3% and the “Primary Screen Efficacy” value (HepG2 cells [2]) was 54.1%.
For CC(CCc1ccccc1)NCC(O)c1ccc(O)c(C(N)=O)c1 (stereo not shown) [Labetalol], the EC50 (HepG2 cells [2]; [3]) was 24.8 ± 4.9 µM and the EC50 (HepG2 cells [2]; [4]) was 12.6 µM.
In the case of CC12CC3CC(C)(C1)CC(N)(C3)C2 [Memantine], the EC50 (I13-35 cells; I13-35 cells) is listed as 93.7 µM, the EC50 (HepG2 cells [2]; [3]) is listed as 29 ± 1.7 µM and the EC50 (HepG2 cells [2]; [4]) is listed as 12.6 µM.
With CN1C[C@H](CNC(=O)OCc2ccccc2)C[C@@H]2c3cccc4c3c(cn4C)C[C@H]21 [Metergoline] the “Cell Viability Efficacy (maximum inhibition of cell viability)” value (HepG2 cells [1]) was 127.9±4.1%, the IC50 (HepG2 cells [1]) was 62.8 µM and the EC50 (HepG2 cells [2]; [3]) was 5.8 ± 1.3 µM. For the same compound, the EC50 (HepG2 cells [2]; [4]) was 2.5 µM.
With CSc1ccc2c(c1)C(N1CCN(C)CC1)Cc1ccccc1S2 (stereo not shown) [Methiothepin] the “Cell Viability Efficacy (maximum inhibition of cell viability)” value (HepG2 cells [1]) was 121.8±9.0% and the “Primary Screen Efficacy” value (HepG2 cells [2]) was 76.9%.
In the case of COCC(=O)O[C@]1(CCN(C)CCCc2nc3ccccc3[nH]2)CCc2cc(F)ccc2[C@@H]1C(C)C [Mibefradil], the “Cell Viability Efficacy (maximum inhibition of cell viability)” value (HepG2 cells [1]) is reported as 97.0±3.3%, the IC50 (HepG2 cells [1]) is reported as 25.2 ± 4.1 µM and the EC50 (HepG2 cells [2]; [3]) is reported as 10.4 ± 3.3 µM. For the same compound, the EC50 (HepG2 cells [2]; [4]) was 4.5 µM.
For COc1ccccc1N1CCN(CCCCN2C(=O)c3ccccc3C2=O)CC1 [NAN-190], the “Cell Viability IC50” value (HepG2 cells [1]) was “Inactive”, the “PLD induction (result in words)” value (HepG2 cells [2]) was “significantly induced PLD formation” and the EC50 (HepG2 cells [2]; [3]) was 2 ± 0.3 µM. The EC50 (HepG2 cells [2]; [4]) was 2.2 µM.
In the case of CC(C)[C@H]1c2ccc(F)cc2CC[C@@]1(CCN(C)CCCc1nc2ccccc2[nH]1)OC(=O)C1CC1 [NNC 55-0396], the “Cell Viability Efficacy (maximum inhibition of cell viability)” value (HepG2 cells [1]) is reported as 106% and 106.3±4.3% and the “Primary Screen Efficacy” value (HepG2 cells [2]) is reported as 91.6%.
With CN1CCN(C2Cc3ccccc3Sc3ccc(Cl)cc32)CC1.O=C(O)/C=C\C(=O)O (stereo not shown) [Octoclothepin] the “Cell Viability Efficacy (maximum inhibition of cell viability)” value (HepG2 cells [1]) was 121.0±4.9% and the “Primary Screen Efficacy” value (HepG2 cells [2]) was 135.0%.
With C[C@@H]1O[C@@H](O[C@H]2C[C@@H](O)[C@]3(CO)[C@H]4[C@H](O)C[C@]5(C)[C@@H](C6=CC(=O)OC6)CC[C@]5(O)[C@@H]4CC[C@]3(O)C2)[C@H](O)[C@H](O)[C@H]1O [Ouabain] the “Cell Viability Efficacy (maximum inhibition of cell viability)” value (HepG2 cells [1]) was 43.6±1.1%, the “Cell Viability Efficacy (maximum inhibition of cell viability)” value (HepG2 cells [1]; listed as ouabain) was 42% and the IC50 (HepG2 cells [1]) was 0.2 µM. For the same compound, the EC50 (HepG2 cells [2]; [3]) was 3 ± 1.8 µM and the EC50 (HepG2 cells [2]; [4]) was 0.4 µM.
In the case of CN(C)CCCN1c2ccccc2Sc2ccccc21 [Promazine], the EC50 (I13-35 cells; I13-35 cells) is listed as 5.3 µM, the EC50 (HepG2 cells [2]; [3]) is listed as 5.7 ± 1.9 µM and the EC50 (HepG2 cells [2]; [4]) is listed as 22.4 µM.
For CC[C@]1(O)C[C@@H]2CN(CCc3c([nH]c4ccccc34)[C@@](C(=O)OC)(c3cc4c(cc3OC)N(C)[C@H]3[C@@](O)(C(=O)OC)[C@H](OC(C)=O)[C@]5(CC)C=CCN6CC[C@]43[C@@H]65)C2)C1 [Vinblastine], the “Cell Viability IC50” value (HepG2 cells [1]) was “Inactive”, the EC50 (HepG2 cells [2]; [3]) was 9.5 ± 5.5 µM and the EC50 (HepG2 cells [2]; [4]) was 12.6 µM.
In the case of CN(C)CC/C=C1/c2ccccc2Sc2ccc(Cl)cc21 [chlorprothixene], the “PLD induction (result in words)” value (HepG2 cells [2]) is reported as “significantly induced PLD formation”.
In the case of Cl.Cl.OCCN1CCN(CC/C=C2/c3ccccc3Sc3ccc(C(F)(F)F)cc32)CC1 [cis-(Z)-Flupenthixol], the “Cell Viability Efficacy (maximum inhibition of cell viability)” value (HepG2 cells [1]) is reported as 131.7±6.4%, the “PLD induction (result in words)” value (HepG2 cells [2]) is reported as “significantly induced PLD formation” and the “Primary Screen Efficacy” value (HepG2 cells [2]) is reported as 37.3%.
In the case of CN1CCC[C@@H]1CCO[C@](C)(c1ccccc1)c1ccc(Cl)cc1 [clemastine], the “PLD induction (result in words)” value (HepG2 cells [2]) is reported as “significantly induced PLD formation”.
For CN(C)CCC=C1c2ccccc2C=Cc2ccccc21 [cyclobenzaprine], the “PLD induction (result in words)” value (HepG2 cells [2]) was “identified as novel PLD inducers”.
For CN1CCC(=C2c3ccccc3C=Cc3ccccc32)CC1 [cyproheptadine], the “PLD induction (result in words)” value (HepG2 cells [2]) was “identified as novel PLD inducers”.
For OCCN1CCN(CCCN2c3ccccc3Sc3ccc(C(F)(F)F)cc32)CC1 [fluphenazine], the “PLD induction (result in words)” value (HepG2 cells [2]) was “positive”.
With CN1CCN(C2=Nc3ccccc3Oc3ccc(Cl)cc32)CC1 [lozapine] the “PLD induction (result in words)” value (HepG2 cells [2]) was “positive”.
In the case of OCCN1CCN(CCCN2c3ccccc3C=Cc3ccccc32)CC1 [opipramol], the “PLD induction (result in words)” value (HepG2 cells [2]) is reported as “identified as novel PLD inducers”.
With COc1ccccc1N1CCN(CCN(C(=O)c2ccc(F)cc2)c2ccccn2)CC1 [p-MPPF] the “PLD induction (result in words)” value (HepG2 cells [2]) was “significantly induced PLD formation”.
In the case of CC(CN1c2ccccc2Sc2ccccc21)N(C)C (stereo not shown) [promethazine], the “PLD induction (result in words)” value (HepG2 cells [2]) is reported as “positive”.
For CN1CCN(CCCN2c3ccccc3Sc3ccc(C(F)(F)F)cc32)CC1 [trifluoperazine], the “PLD induction (result in words)” value (HepG2 cells [2]) was “positive”.
In the case of aminobenzotropine, the “PLD induction (result in words)” value (HepG2 cells [2]) is reported as “significantly induced PLD formation”.
